# Values quoted from earlier work as cited in patent publication US20190352602A1, “Methods and Compositions for Producing Germ Cells from Bone Marrow Derived Germline Stem Cells” (The General Hospital Corporation, priority 2004, published 2019).
# Tested on: irradiated testicular tissue
# Settings: irradiated testicular tissue treated with S1P vs untreated tissues
compound,measurement,value
"CCCCCCCCCCCCC/C=C/[C@@H](O)[C@@H](N)COP(=O)(O)O [S1P, Sphingosine-1-phosphate]",numbers of primary spermatocytes and spermatogonia,higher than untreated tissues
